In US20150025077A1 (COYOTE PHARMACEUTICALS, INC., priority 2012, published 2015):

Each compound was assayed on HSP70 (assay: HSP70 levels in Neuro 2a cells, ELISA). Conditions: 10 nM, 48 hrs compound then 24 hrs GGTI-298.
Type: cell-based, mouse
Experimental: Mouse neuroblastoma 2a cells were cultured in DMEM with 10% FBS for 24 hrs. […] After 24 hrs cells were harvested and lysates were prepared and analyzed by ELISA for HSP70. Compound ID numbers in table refer to structures in Table 1 and Table 2.

SMILES | HSP70 level, ELISA signal (absence of compounds normalized as 1.00)
CC(C)=CCC/C(C)=C/CC/C(C)=C/COC(=S)NC1CC1 [Compound 9d, Cyclopropyl 2E, 6E-farnesyl thiocarbamate] | 1.05
CC(C)=CCC/C(C)=C/CC/C(C)=C/COC(=S)NCCCN1CCOCC1 [Compound 9k, Morpholinyl-N-3′-propyl 2E, 6E-farnesyl thiocarbamate] | 1.13

Same assay, conditions: 100 nM, 48 hrs compound then 24 hrs GGTI-298

SMILES | HSP70 level, ELISA signal (absence of compounds normalized as 1.00)
CCOC(=O)C1(C/C=C(\C)CC/C=C(\C)CC/C=C(\C)CCC=C(C)C)CCCC1=O (stereo not shown) [Compound 79] | 0.98
CC(C)=CCC/C(C)=C/CC/C(C)=C/CC/C(C)=C/CCC(=O)C(C)(C)C [Compound 60] | 0.89
CON=C(C)CC/C=C(\C)CC/C=C(\C)CC/C=C(\C)CCC=C(C)C [Compound 104] | 0.90
CC(C)=CCC/C(C)=C/CC/C(C)=C/CC/C(C)=C/COC(=S)NCc1ccco1 [Compound 38b, O-((2E,6E,10E)-3,7,11,15-tetramethylhexadeca-2,6,10,14-tetraen-1-yl) (furan-2-ylmethyl)carbamothioate] | 1.04
CCOC(=O)/C=C/C=C(\C)CC/C=C(\C)CC/C=C(\C)CCC=C(C)C [Compound 65] | 0.90
CCOC(=O)C1(C/C=C(\C)CC/C=C(\C)CC/C=C(\C)CCC=C(C)C)CCCCCC1=O (stereo not shown) [Compound 76] | 0.75
CCCC(=O)CC/C=C(\C)CC/C=C(\C)CC/C=C(\C)CCC=C(C)C [Compound 73] | 0.99
CCNC(=O)OC(C)CC/C=C(\C)CC/C=C(\C)CCC=C(C)C (stereo not shown) [Compound 20a, Ethyl 5E,9E-farnesyl prop-2-yl carbamate] | 0.91
CC(C)=CCC/C(C)=C/CC/C(C)=C/CC/C(C)=C/COC(=S)Nc1ccccc1 [Compound 10k, Phenyl 2E,6E,10E-geranylgeranyl thiocarbamate] | 1.11
CC(C)=CCC/C(C)=C/CC/C(C)=C/CC/C(C)=C/COC(=O)Nc1cccnc1 [Compound 7z, 3′-Pyridyl 2E, 6E,10E-geranylgeranyl carbamate] | 0.96
CCOC(=O)C(C/C=C(\C)CC/C=C(\C)CC/C=C(\C)CCC=C(C)C)C(C)=O (stereo not shown) [Compound 87] | 0.95
CCC(=O)CC/C=C(\C)CC/C=C(\C)CC/C=C(\C)CCC=C(C)C [Compound 61] | 0.98
CC(C)=CCC/C(C)=C/CC/C(C)=C/CC/C(C)=C/CN(C)C1CCCCC1 [Compound 17a, N-Cyclohexyl N-Methyl-2E,6E,10E-Geranylgeranyl amine] | 1.09
C=CCO/N=C(\C)CC/C=C(\C)CC/C=C(\C)CC/C=C(\C)CCC=C(C)C [Compound 109] | 1.12
CC(C)=CCC/C(C)=C/CC/C(C)=C/CC/C(C)=C/CCC(C)OC(=O)NC(C)C (racemic) [Compound 23a, 5E, 9E, 13E-Geranylgeranyl-rac-prop-2-yl iso-propyl carbamate] | 1.21
CCC(=CCCC(C)=O)CC/C=C(\C)CC/C=C(\C)CCC=C(C)C [Compound 117] | 1.08

Same assay, conditions: 10uM, 48 hrs compound then 24 hrs GGTI-298

SMILES | HSP70 level, ELISA signal (absence of compounds normalized as 1.00)
CC(C)=CCC/C(C)=C/CC/C(C)=C/CC/C(C)=C/c1ncc(C)o1 [Compound 16, 5-methyl-2-((1E,5E,9E)-2,6,10,14-tetramethylpentadeca-1,5,9,13-tetraen-1-yl)oxazole] | 0.89
CC(=O)NC(=S)OC/C=C(\C)CC/C=C(\C)CC/C=C(\C)CCC=C(C)C [Compound 10g, Acetyl 2E,6E,10E-geranylgeranyl thiocarbamate] | 1.60
CCOC(=O)CNC(=O)OC/C=C(\C)CC/C=C(\C)CC/C=C(\C)CCC=C(C)C [Compound 7p, Ethoxycarbonyl methyl 2E, 6E, 10E-geranylgeranyl carbamate] | 1.00
CC(C)=CCC/C(C)=C/CC/C(C)=C/COC(=S)NC1CC1 [Compound 9d, Cyclopropyl 2E, 6E-farnesyl thiocarbamate] | 0.95
CC(C)=CCC/C(C)=C/c1nc(-c2cccnc2)no1 [Compound 35a, (E)-5-(2,6-dimethylhepta-1,5-dien-1-yl)-3-(pyridin-3-yl)-1,2,4-oxadiazole] | 1.08
C=CCNC(=O)OC/C=C(\C)CC/C=C(\C)CC/C=C(\C)CCC=C(C)C [Compound 7k, Allyl 2E, 6E, 10E-geranylgeranyl carbamate] | 1.20
CCCCCCCN(C)C/C=C(\C)CC/C=C(\C)CC/C=C(\C)CCC=C(C)C [Compound 17c, N-Heptyl-N-Methyl-2E,6E,10E-Geranylgeranyl amine] | 1.01
CC(C)=CCC/C(C)=C/c1nc(-c2ccccc2)no1 [Compound 35c, (E)-5-(2,6-dimethylhepta-1,5-dien-1-yl)-3-phenyl-1,2,4-oxadiazole] | 1.04
COc1cc(NC(=O)OC/C=C(\C)CC/C=C(\C)CC/C=C(\C)CCC=C(C)C)cc(OC)c1OC [Compound 7v, 3′,4′,5′-Trimethoxyphenyl 2E, 6E, 10E-geranylgeranyl carbamate] | 1.13
CC(C)=CCC/C(C)=C/CC/C(C)=C/CC/C(C)=C/c1nnc(-c2ccccc2)o1 [Compound 29a, 2-phenyl-5-((1E,5E,9E)-2,6,10,14-tetramethylpentadeca-1,5,9,13-tetraen-1-yl)-1,3,4-oxadiazole] | 1.22
CC(C)=CCC/C(C)=C/CC/C(C)=C/COC(=O)NC(C)C [Compound 8a, iso-Propyl 2E,6E-farnesyl carbamate] | 1.33
CC(C)=CCC/C(C)=C/CC/C(C)=C/COC(=O)Nc1ccc(C)cc1 [Compound 8l, p-Tolyl 2E, 6E-farnesyl carbamate] | 1.03
CC(C)=CCC/C(C)=C/CC/C(C)=C/CC/C(C)=C/CN(C)C1CCCCC1 [Compound 17a, N-Cyclohexyl N-Methyl-2E,6E,10E-Geranylgeranyl amine] | 1.22
CC(C)=CCC/C(C)=C/CC/C(C)=C/COS(=O)(=O)c1ccc(C)cc1 [Compound 6b, 2E, 6E-Farnesyl p-toluenesulfonate] | 1.18
CC(C)=CCC/C(C)=C/CC/C(C)=C/COS(=O)(=O)c1ccccc1 [Compound 6a, 2E, 6E-Farnesyl benzenesulfonate] | 1.11
CC(C)=CCC/C(C)=C/CC/C(C)=C/CC/C(C)=C/C1=N[C@@H](C(C)C)C(=O)O1 [Compound 37b, (S)-4-isopropyl-2-((1E,5E,9E)-2,6,10,14-tetramethylpentadeca-1,5,9,13-tetraen-1-yl)oxazol-5(4H)-one] | 0.89
CNC(=S)OC/C=C(\C)CC/C=C(\C)CC/C=C(\C)CCC=C(C)C [Compound 10a, Methyl 2E,6E,10E-geranylgeranyl thiocarbamate] | 1.17
CCNC(=S)OC/C=C(\C)CC/C=C(\C)CCC=C(C)C [Compound 9a, Ethyl 2E, 6E-farnesyl thiocarbamate] | 0.94
CC(C)=CCC/C(C)=C/CC/C(C)=C/COC(=O)NC1CCCCCC1 [Compound 8d, Cycloheptyl 2E, 6E-farnesyl carbamate] | 1.33
COc1ccc(-c2nnc(/C=C(\C)CC/C=C(\C)CC/C=C(\C)CCC=C(C)C)o2)cc1OC [Compound 29d, 2-(3,4-dimethoxyphenyl)-5-((1E,5E,9E)-2,6,10,14-tetramethylpentadeca-1,5,9,13-tetraen-1-yl)-1,3,4-oxadiazole] | 1.12
CCCCNC(=S)OC/C=C(\C)CC/C=C(\C)CCC=C(C)C [Compound 9c, n-Butyl 2E, 6E-farnesyl thiocarbamate] | 0.96
CNC(=O)OC/C=C(\C)CC/C=C(\C)CCC=C(C)C [Compound 42] | 1.25
CCC(C)NC(=S)OC/C=C(\C)CC/C=C(\C)CC/C=C(\C)CCC=C(C)C (stereo not shown) [Compound 10c, sec-Butyryl 2E,6E,10E-geranylgeranyl thiocarbamate] | 1.53
CCCCCN(C)C/C=C(\C)CC/C=C(\C)CC/C=C(\C)CCC=C(C)C [Compound 17b, N-Methyl-N-n-pentyl-2E,6E,10E-Geranylgeranyl amine] | 1.08
CC(C)=CCC/C(C)=C/CC/C(C)=C/CC/C(C)=C/c1nnc(-c2ccncc2)o1 [Compound 29f, 2-(pyridin-4-yl)-5-((1E,5E,9E)-2,6,10,14-tetramethylpentadeca-1,5,9,13-tetraen-1-yl)-1,3,4-oxadiazole] | 1.01
CC(C)=CCC/C(C)=C/CC/C(C)=C/CC/C(C)=C/C1=N[C@H](CC(C)C)CO1 [Compound 27f, (R)-4-isobutyl-2-((1E,5E,9E)-2,6,10,14-tetramethylpentadeca-1,5,9,13-tetraen-1-yl)-4,5-dihydrooxazole] | 0.91
CC(C)=CCC/C(C)=C/CC/C(C)=C/COC(=S)NCCCN1CCOCC1 [Compound 9k, Morpholinyl-N-3′-propyl 2E, 6E-farnesyl thiocarbamate] | 0.97
CC(C)=CCC/C(C)=C/CC/C(C)=C/COC(=O)NC1CCCC1 [Compound 8c, Cyclopentyl 2E, 6E-farnesyl carbamate] | 1.46
